From a melting point compilation (Tetko et al.) come the findings set out here.

By melting point is commonly meant the temperature of the solid-liquid transition.

`Cc1ccn(-c2ccccc2)n1`: the melting point stood at 37 °C.

For `COC(=O)c1cccc([N+](=O)[O-])c1O`, the melting point worked out at 131 °C.

With `CCOC(=O)C(=C(C)OC(=O)c1ccccc1)c1cc(C(C(=O)OCC)=C(C)OC(=O)c2ccccc2)c([N+](=O)[O-])cc1[N+](=O)[O-]`, the melting point is 167 °C.

`Brc1ccc2c(c1)OCOC2` came in with a melting point of 49 to 51 °C.

In turn, `O=C(c1ccccc1)c1ccc(C(F)(F)F)c(F)c1` had a melting point of 66 °C.

As to `Cc1cnnc2ccc3nonc3c12`, the melting point lay in the range of 171 to 173 °C.

With `O=C(Nc1ccc([N+](=O)[O-])cc1)C(C(F)(F)F)(C(F)(F)F)C(F)(F)F`, the melting point was 280 to 282 °C.

Compound `CC(C)C(C)(C)Cl` showed a melting point of -10 °C.

Compound `Cc1cccc2c1C(=O)OC2` registered a melting point of 86 °C.

Take `Cc1ccc(NN=C2C(=O)OC(C)(C)OC2=O)cc1`: the melting point came to 130 °C.

In the case of `Cc1ccc(S(=O)(=O)n2ccc(C(=O)O)c2)cc1`, the melting point fell in the range of 202 to 206 °C.

In turn, `O=C(O)c1cccc(O)c1[N+](=O)[O-]` had a melting point of 179 °C.

For the compound `CCCCCCCCCCCCCCCCCCNC`, the melting point is 44 °C.

As to `Fc1ccc(CBr)c(Cl)c1`, the melting point amounted to 37 °C.

Take `NNc1c(Cl)cc(Cl)cc1C(F)(F)F`: the melting point lay in the range of 40 to 43 °C.

`OCc1ccc(-n2cccn2)cc1`: the melting point is 76 to 80 °C.

Consider `c1ccc(P(CCCCCP(c2ccccc2)c2ccccc2)c2ccccc2)cc1`, for which the melting point was found to be 47 °C.

The compound `NC(=O)NCCC[C@H](N)C(=O)O` registered a melting point of 236 °C.

`Cc1cc(C)c(N)c(C)c1N` registered a melting point of 90 °C.

In turn, `O=C(O)c1cn2nc(Cl)ccc2n1` showed a melting point of 248 to 249 °C.

In turn, `O=Cc1c(-c2ccccc2)nn(-c2ccccc2)c1Cl` yielded a melting point of 109 to 110 °C.

For the compound `Cc1ccnc(Cl)n1`, the melting point is 47 °C.

In the case of `C1=CC2(CC2)C2C1C1C=CC2C12CC2` (stereo unspecified), the melting point worked out at 45 °C.

`C[C@@]12CCC[C@@]1(O)[C@@H]1CC=C3CC(O)CC[C@]3(C)[C@H]1CC2` (stereo partly specified) had a melting point of 201 to 203 °C.

For `Cn1cnc(C#N)c1C#N`, the melting point came to 85 °C.

In the case of `N#Cc1c(-c2ccc(Br)cc2)cc2c(C#N)c(=N)n(C(=O)c3ccccc3)n2c1N`, the melting point is 190 °C.

On to `NC(=O)C1CCN(CCCN2c3ccccc3Sc3ccc(Cl)cc32)CC1`, for which the melting point is 139 °C.

`O=C(O)[C@H]1CC[C@H](C(=O)O)CC1` gave a melting point of 312 °C.

`Nc1ccc(Br)cc1C(=O)O` showed a melting point of 220 °C.

On to `CCCCCCCCCCCCCCCCCCN=C=S`, for which the melting point fell in the range of 29 to 33 °C.

As to `OC(CCl)C(O)CCl` (stereo unspecified), the melting point was 126 °C.

On to `O=C(O)CCCc1ccc2ccc3cccc4ccc1c2c34`, for which the melting point was in the range of 185 to 190 °C.

`CC1(C)CC(=O)c2c(C(=O)c3cccs3)noc2C1`: the melting point worked out at 131 °C.

Regarding `CCOc1ccc2[nH]c(S)nc2c1`, the melting point was 249 °C.

On to `FC(F)(F)c1ccc(-c2nc(CCl)cs2)cc1`, for which the melting point lay within 80 to 85 °C.

In turn, `CC(=O)OC1CCC2C3CCC4CC(C#Cc5ccccc5)(OC(C)=O)CCC4(C)C3CCC12C` (stereo unspecified) gave a melting point of 100 to 111 °C.

Regarding `CC(=CC=Cc1ccccc1)C(=O)OC(=O)C(C)=CC=Cc1ccccc1`, the melting point lay within 112 to 113 °C.

Consider `CNC(=O)Oc1cc(C)cc(C)c1`, for which the melting point was found to be 99 °C.

Regarding `O=C(O)c1cnc2ccc(OC(F)(F)F)cc2c1O`, the melting point was found to be 245 °C.

On to `CC[C@@H]1CCC[C@H]1CC` (relative stereo), for which the melting point is -95 °C.

The compound `CCOC(=O)c1ccc(F)cc1` gave a melting point of 26 °C.

Turning to `Clc1cccc(I)c1Cl`, the melting point came to 35 °C.

On to `C=Cc1cccc(CC)c1`, for which the melting point is -101 °C.

`Cc1c(C)c(CCl)c(C)c(CCl)c1C` displayed a melting point of 117 °C.

With `CC(=O)CCc1oc2ccc(Cl)cc2c1-c1ccc(C)o1`, the melting point came to 75 °C.

For `Cc1cc(N)c2ncccc2c1`, the melting point is 73 °C.

Regarding `CC(=O)NCC(=O)O`, the melting point is 207 to 209 °C.

`COc1c(C(C)(C)C)cc([N+](=O)[O-])c(C)c1[N+](=O)[O-]`: the melting point came to 85 °C.

`O=C(O)c1ncc[nH]1`: the melting point is 198 °C.

The compound `Cc1c(C)c(C)c2c(c1C)CCC2=O` had a melting point of 154 °C.

`O=[N+]([O-])c1ccccc1C(Br)C(Br)c1ccccn1` (stereo unspecified): the melting point stood at 182 °C.

`O=C=Nc1cccc(C(F)(F)F)c1` showed a melting point of -26 °C.

`CC(C)S(=O)(=O)c1cnc(-c2cccnc2)nc1N` registered a melting point of 225 to 228 °C.

Consider `CCOC(=O)c1c(C)oc(NC(=O)Nc2ccccc2)c1C(=O)OCC`, for which the melting point was 110 to 112 °C.

In turn, `CC(C)(C)CC(C)(C)Nc1nc(N2CCOCC2)nc(N2CCOCC2)n1` showed a melting point of 159 °C.

Turning to `Nc1cccnc1Oc1ccccc1F`, the melting point lay within 87 to 89 °C.

Regarding `COC(=O)C1=C(C)NC(=O)NC1c1ccc2c(c1)OCO2` (stereo unspecified), the melting point lay in the range of 239 to 241 °C.

In turn, `Brc1ccc(Br)s1` gave a melting point of -6 °C.

With `CCOC(=O)C(Cl)=NNc1ccccc1`, the melting point lay within 77 to 80 °C.

Take `S=C=Nc1ccc(Cl)c(Cl)c1Cl`: the melting point came to 69.5 °C.

The compound `Clc1ccc2c(c1)Oc1cc(Cl)ccc1O2` returned a melting point of 151 °C.

In turn, `COc1cc(Br)c(CO)cc1OC` showed a melting point of 95 to 100 °C.

As for `O=[N+]([O-])c1cc(Br)cnc1Cl`, the melting point is 64 to 67 °C.

As for `CC1=CC=CC2(C)Cc3ccccc3C(=O)N12` (stereo unspecified), the melting point is 177 °C.

As to `O=C(O)CN(CCN(CC(=O)O)CC(=O)O)CC(=O)O`, the melting point was determined as 220 °C.

`COC(=O)c1ccc2snnc2c1` displayed a melting point of 118 to 120 °C.

The compound `Nc1sccc1-c1nc2ccccc2s1` showed a melting point of 138 to 140 °C.

Turning to `C=C1C(=O)C23C4CC5C(C)(C)CCC(OC(C)=O)C5(C(=O)O4)C2C(OC(C)=O)CC1C3O` (stereo unspecified), the melting point turned out to be 238 °C.

`CC1=CC(=O)C=CC1=O` returned a melting point of 69 °C.

As to `COC(=O)c1sccc1N=C=S`, the melting point lay in the range of 57 to 59 °C.

As for `Cc1cccc([N+](=O)[O-])c1C`, the melting point amounted to 15 °C.

Turning to `Cc1cc(C(=O)O)c(C)[nH]1`, the melting point worked out at 200 °C.

Regarding `O=[N+]([O-])c1ccc(N=Nc2ccccc2)cc1`, the melting point stood at 133 °C.

The compound `CC1(C)CCc2cc(S(=O)(=O)Cl)ccc2O1` came in with a melting point of 92 to 94 °C.

Compound `COC(=O)C(C)(N)Cc1c[nH]c2ccccc12` (stereo unspecified) yielded a melting point of 139 to 142 °C.

As for `O=C1c2ccccc2C(=O)c2c([N+](=O)[O-])ccc(O)c21`, the melting point is 273 to 275 °C.

`c1coc(CSSCc2ccco2)c1` showed a melting point of 10 °C.

In the case of `CC12C=CCC1C1CCC3CC(O)CCC3(C)C1CC2` (stereo unspecified), the melting point stood at 143 °C.

`Cc1nn(-c2ccccc2)nc1C(=O)NNC(=S)Nc1ccccc1` came in with a melting point of 205 to 206 °C.

With `C=C/C=C(C)/C=N/Nc1ccc([N+](=O)[O-])cc1[N+](=O)[O-]`, the melting point was 171 °C.

`CCCCCCCCC(=O)c1ccc(/N=N/c2ccc(OCC)cc2)cc1`: the melting point was in the range of 63 to 108 °C.

Take `O=C1c2ccc(C(Br)Br)c([N+](=O)[O-])c2C(=O)c2c(Cl)c(Cl)c(Cl)c(Cl)c21`: the melting point is 246 to 248 °C.

`COc1ccc(C=C(C(=O)O)C(=Cc2ccc(OC)c(OC)c2)C(=O)O)cc1OC` registered a melting point of 224 °C.

In turn, `COP(=O)(OC)c1ccccc1P(=O)(OC)OC` showed a melting point of 81 °C.

Compound `CCCOc1ccccc1OCC(O)CO` (stereo unspecified) yielded a melting point of 70 °C.

`S=c1oc2ccccc2n1CSCCCS` returned a melting point of 188 °C.

The compound `CNC1=CC(=O)C2(C)CCC1C2(C)C` (stereo unspecified) returned a melting point of 195 °C.

`CC(=O)Oc1cccc(C(N)=O)c1`: the melting point came out at 140 °C.

`O=Cc1ccc2oc3ccccc3c2c1` yielded a melting point of 74 °C.

The compound `NS(=O)(=O)c1ccc(SCCCCO)s1` gave a melting point of 48.5 °C.

In turn, `O=c1[nH]nc(S)n1C1CCCCC1` registered a melting point of 190 to 194 °C.

The compound `N#Cc1ccc(Cl)cc1N` yielded a melting point of 161 °C.

For the compound `O=C(O)c1c[nH]c2ccccc12`, the melting point was in the range of 200 to 203 °C.

As to `ClC1CCCCC1Cl` (stereo unspecified), the melting point was -1.5 °C.

`CC(C)(C)OC(=O)N[C@@H](CO)c1ccccc1`: the melting point was in the range of 136 to 139 °C.

For `Clc1cc(-c2ccccn2)nc(-c2ccccn2)c1`, the melting point came out at 150 °C.

As for `N#C/C(=N\Nc1ccc(F)cc1)c1nc2ccccc2c(=O)[nH]1`, the melting point turned out to be 215 °C.

In turn, `Cc1cc(O)ccc1[N+](=O)[O-]` had a melting point of 128 °C.

Compound `Clc1cccnc1-c1ccnc(Cl)c1Cl` came in with a melting point of 169 °C.

The compound `CCCC(=O)c1ccc(NC(C)=O)cc1O` gave a melting point of 85 to 87 °C.

The compound `Cc1cc(=O)oc2cc(N)ccc12` came in with a melting point of 227 °C.

`O=c1ccoc2ccccc12` came in with a melting point of 59 °C.

As to `CCN(Cc1ccccc1)c1ccccc1`, the melting point came to 35 °C.

For `O=C(Cl)c1ccc(-c2ccco2)s1`, the melting point was determined as 83 °C.

The compound `CN1c2ccccc2Sc2ccccc21` gave a melting point of 102 °C.

Consider `O=Cc1ccc2cccc(O)c2n1`, for which the melting point fell in the range of 96 to 100 °C.

Consider `C=COCCCCCCCCCCCCCCCC`, for which the melting point worked out at 16 °C.

`CN(C)c1ccc(N=Nc2ccccc2)cc1` registered a melting point of 117 °C.

On to `CCCOC(=O)C1=C(C)NC(=O)NC1c1cccc(OC)c1OC` (stereo unspecified), for which the melting point is 163 °C.

As for `Fc1ccc(C2(Cn3cncn3)OC2c2ccccc2Cl)cc1` (stereo unspecified), the melting point turned out to be 137 °C.

In turn, `O=C(C1=NN(c2ccccc2)C2C(=O)N(c3ccc(Br)cc3)C(=O)C12)c1ccc(Cl)cc1` (stereo unspecified) yielded a melting point of 255 °C.
